Data from article PMC9490041, “Determinants of affinity, specificity, and phase separation in a supramodule from Post-synaptic density protein 95” (iScience, 2022).
pIC50, pKi: −log10 of the molar value. Read-outs that look alike come from different tables or passages of the source. Ends that are not written are not given here.

Key:
Assay in all cases: FP displacement (competition) of FITC-15 AA CRIPT by library peptide, IC50 and Ki
[1] = target: PDZ3 (PSD-95) (Homo sapiens, UniProt P78352); conditions: for Ki: Ki (µM); for pKi: Ki, FP displacement of 5 nM FITC-15 AA CRIPT by non-labeled acetylated peptide, room temperature, Ki from IC50, technical triplicates, PDZ3
Sequence of PDZ3 (PSD-95) (P78352 313-393 limits assumed): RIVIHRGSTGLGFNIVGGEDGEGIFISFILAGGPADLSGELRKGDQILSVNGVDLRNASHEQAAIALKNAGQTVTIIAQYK

[2] = target: PSG (PSD-95); conditions: for IC50: read-out: IC50 (µM), PSG; for Ki: read-out: Ki (µM), PSG; for pKi: FP displacement of 5 nM FITC-15 AA CRIPT by non-labeled acetylated peptide, room temperature, Ki from IC50, technical triplicates, PSG
[3] = target: PSG G322A (PSD-95); conditions: for IC50: read-out: IC50 (µM), PSG G322A; for Ki: read-out: Ki (µM), PSG G322A
[4] = target: PSG G335A (PSD-95); conditions: for IC50: read-out: IC50 (µM), PSG G335A; for Ki: read-out: Ki (µM), PSG G335A
[5] = target: PSG G322A G335A (PSD-95); conditions: for IC50: read-out: IC50 (µM), PSG G322A G335A; for Ki: read-out: Ki (µM), PSG G322A G335A
[6] = PDZ3, FP displacement of FITC-15 AA CRIPT probe by PSD library peptide, protein PDZ3
[7] = PDZ3, FP displacement of FITC-15 AA CRIPT probe by acetylated PSD library peptide
[8] = FP displacement of FITC-15 AA CRIPT probe by acetylated PSD library peptide
[9] = FP displacement of FITC-15 AA CRIPT probe by acetylated PSD library peptide (P-13 to P0 plus extra N-terminal Y)
[10] = FP displacement of FITC-15 AA CRIPT probe by PSD library peptide, protein PSG (wild type)
[11] = FP displacement of FITC-15 AA CRIPT probe by PSD library peptide, protein PSG G322A
[12] = FP displacement of FITC-15 AA CRIPT probe by PSD library peptide, protein PSG G335A
[13] = FP displacement of FITC-15 AA CRIPT probe by PSD library peptide, protein PSG G322A G335A

Molecule	pIC50 [1]	Ki [1, 6] [µM]	Ki [1, 7] [µM]	pKi [1]	IC50 [2, 8] [µM]	Ki [2, 8] [µM]	IC50 [3, 8] [µM]	Ki [3, 8] [µM]	IC50 [4, 8] [µM]	Ki [4, 8] [µM]	IC50 [5, 9] [µM]	Ki [5, 8] [µM]	IC50 [2, 10] [µM]	Ki [2, 10] [µM]	IC50 [3, 11] [µM]	Ki [3, 11] [µM]	IC50 [4, 12] [µM]	Ki [4, 12] [µM]	IC50 [5, 13] [µM]	Ki [5, 13] [µM]	further results
Ac-YDSIEIYIPEAQTRL [DLGP2]	3.40	165	–	–	–	–	–	–	–	–	–	–	–	–	–	–	–	–	–	–	–
CC(=O)N[C@@H](Cc1ccc(O)cc1)C(=O)N[C@@H](CC(N)=O)C(=O)N[C@@H](CO)C(=O)N[C@H](C(=O)N[C@@H](CC(N)=O)C(=O)N[C@@H](CC(C)C)C(=O)N1CCC[C@H]1C(=O)N[C@@H](Cc1c[nH]cn1)C(=O)NCC(=O)N[C@@H](Cc1c[nH]cn1)C(=O)N[C@@H](CO)C(=O)N[C@H](C(=O)N[C@H](C(=O)N[C@@H](CCCNC(=N)N)C(=O)N[C@H](C(=O)O)C(C)C)[C@@H](C)O)[C@@H](C)O)[C@@H](C)O [NLGNX]	4.21	–	40	> 4.12	184	78	72	31	39	14	43	15	–	–	–	–	–	–	–	–	–
CC[C@H](C)[C@H](NC(=O)[C@H](CO)NC(=O)[C@@H]1CCCN1C(=O)[C@H](CCSC)NC(=O)[C@H](CCCCN)NC(=O)[C@H](CCCCN)NC(=O)[C@H](Cc1ccc(O)cc1)NC(=O)[C@@H](NC(=O)[C@H](CCCNC(=N)N)NC(=O)[C@H](CCCNC(=N)N)NC(=O)[C@H](Cc1ccc(O)cc1)NC(C)=O)C(C)C)C(=O)N[C@@H](CCC(=O)O)C(=O)N[C@@H](CO)C(=O)N[C@@H](CC(=O)O)C(=O)N[C@H](C(=O)O)C(C)C [NMDE1]	–	172	–	–	–	–	–	–	–	–	–	–	463	243	153	66	267	95	156	54	–
CC(=O)N[C@@H](Cc1ccc(O)cc1)C(=O)N[C@@H](CCC(=O)O)C(=O)N[C@@H](CCC(=O)O)C(=O)N[C@@H](CCC(=O)O)C(=O)N[C@@H](CC(C)C)C(=O)N[C@@H](CCC(N)=O)C(=O)N[C@@H](CC(=O)O)C(=O)N[C@@H](CO)C(=O)N[C@@H](CCCNC(=N)N)C(=O)N[C@H](C(=O)N[C@@H](Cc1ccc(O)cc1)C(=O)N[C@H](C(=O)N[C@@H](CO)C(=O)N[C@@H](CO)C(=O)N[C@@H](CC(C)C)C(=O)O)C(C)C)C(C)C [CAC1C]	–	449	–	–	–	–	–	–	–	–	–	–	200	105	99	43	90	32	82	28	–
CC(=O)N[C@@H](Cc1ccc(O)cc1)C(=O)N[C@@H](C)C(=O)N[C@@H](CO)C(=O)N[C@@H](CC(N)=O)C(=O)N[C@H](C(=O)N[C@@H](CC(N)=O)C(=O)N[C@H](C(=O)N[C@@H](CC(C)C)C(=O)N[C@@H](CC(N)=O)C(=O)N[C@@H](CCCNC(=N)N)C(=O)N[C@@H](CCCCN)C(=O)N[C@H](C(=O)N[C@H](C(=O)N1CCC[C@H]1C(=O)N[C@H](C(=O)O)C(C)C)[C@@H](C)O)[C@@H](C)O)[C@@H](C)O)[C@@H](C)O [CCG8]	4.72	–	–	> 4.12	116	49	15	6	28	10	–	–	–	–	–	–	–	–	–	–	pKi [2]: > 4.12
CC[C@H](C)[C@H](NC(=O)[C@H](CO)NC(=O)[C@H](CCC(N)=O)NC(=O)[C@H](CCCNC(=N)N)NC(=O)[C@H](CCCCN)NC(=O)[C@H](CO)NC(=O)[C@H](CC(=O)O)NC(=O)[C@@H]1CCCN1C(=O)[C@H](Cc1ccc(O)cc1)NC(C)=O)C(=O)N[C@@H](CC(C)C)C(=O)N[C@@H](Cc1ccccc1)C(=O)N[C@@H](CO)C(=O)N[C@H](C(=O)N[C@@H](CCC(=O)O)C(=O)N[C@H](C(=O)O)C(C)C)[C@@H](C)O [BCR]	–	–	42	> 4.12	110	46	27	12	33	12	21	7	–	–	–	–	–	–	–	–	pKi [2]: > 4.12
CC(=O)N[C@@H](Cc1ccc(O)cc1)C(=O)N[C@@H](Cc1c[nH]cn1)C(=O)N1CCC[C@H]1C(=O)N[C@@H](Cc1c[nH]cn1)C(=O)N1CCC[C@H]1C(=O)N[C@@H](Cc1c[nH]cn1)C(=O)N1CCC[C@H]1C(=O)N[C@@H](Cc1c[nH]cn1)C(=O)N[C@@H](CO)C(=O)N[C@@H](Cc1c[nH]cn1)C(=O)N[C@@H](CO)C(=O)N[C@H](C(=O)N[C@H](C(=O)N[C@@H](CCCNC(=N)N)C(=O)N[C@H](C(=O)O)C(C)C)[C@@H](C)O)[C@@H](C)O [NLGN1]	–	72	–	> 4.12	–	–	–	–	–	–	–	–	118	61	56	24	–	9	22	7.42	pKi [2]: > 4.12

More lines, main results first:

pIC50 [1]	Ki [1, 6] [µM]	Ki [1, 7] [µM]	pKi [1]	IC50 [2, 8] [µM]	Ki [2, 8] [µM]	IC50 [3, 8] [µM]	Ki [3, 8] [µM]	IC50 [4, 8] [µM]	Ki [4, 8] [µM]	IC50 [5, 9] [µM]	Ki [5, 8] [µM]	IC50 [2, 10] [µM]	Ki [2, 10] [µM]	IC50 [3, 11] [µM]	Ki [3, 11] [µM]	IC50 [4, 12] [µM]	Ki [4, 12] [µM]	IC50 [5, 13] [µM]	Ki [5, 13] [µM]	Molecule	further results
4.17	–	27	> 4.12	427	181	133	57	233	83	76	26	–	–	–	–	–	–	–	–	CC[C@H](C)[C@H](NC(=O)[C@@H]1CCCN1C(=O)[C@H](Cc1ccc(O)cc1)NC(C)=O)C(=O)NCC(=O)NCC(=O)N[C@@H](CO)C(=O)N[C@@H](CC(C)C)C(=O)N[C@@H](CC(N)=O)C(=O)N[C@@H](CO)C(=O)N[C@H](C(=O)N[C@H](C(=O)N[C@@H](CC(=O)O)C(=O)N[C@@H](CO)C(=O)N[C@@H](C)C(=O)N[C@@H](CC(C)C)C(=O)O)[C@@H](C)O)[C@@H](C)O [RGS14]	–
–	–	548	–	2160	923	834	362	–	–	1320	457	–	–	–	–	–	–	–	–	Ac-YQARRGKKKSGSLVL [RHOA]	–
–	–	–	–	–	–	–	–	–	–	–	–	2070	884	489	212	729	260	219	76	CC(=O)N[C@@H](Cc1ccc(O)cc1)C(=O)N[C@@H](CC(C)C)C(=O)N[C@@H](C)C(=O)N[C@@H](CC(=O)O)C(=O)N[C@@H](CCC(=O)O)C(=O)N[C@H](C(=O)N[C@@H](CO)C(=O)N[C@@H](C)C(=O)N[C@@H](CO)C(=O)N[C@@H](CC(C)C)C(=O)N[C@@H](C)C(=O)N[C@@H](CCCCN)C(=O)N[C@@H](CCC(N)=O)C(=O)NCC(=O)N[C@@H](CC(C)C)C(=O)O)C(C)C [TAU]	–
